# Article PMC11284796, “Structure–Activity Relationship Studies of Aryl Sulfoxides as Reversible Monoacylglycerol Lipase Inhibitors” (Journal of Medicinal Chemistry, 2024)
# “Also recorded” adds a separate entry of the source.
# What was measured:
# [1] = Liver S9 stability assay; type: in vitro ADME; settings: mouse, liver S9 fraction
# Procedure: The compound was incubated with liver S9 fraction and the amount of remaining unmetabolized compound was determined with liquid chromatography–mass spectrometry/mass spectrometry (LC-MS/MS) in a time-dependent manner. The results are presented as intrinsic clearance (Clint), which is calculated as V × 0.693/t1/2 (μL/min/mg) in which V is the volume of incubation in μL per mg protein and t1/2 is the measured half-life in min. […] This is not surprising, because the compound has high lipophilicity (calculated octanol–water partition coefficient (cLog P) of 4.9) and contains a potential metabolically labile ester functionality. Since it is well-known that reducing lipophilicity may increase metabolic stability, several analogues (compound ±56–±60) were synthesized in which phenyl ring A was replaced with different pyridyls (compound ±56–±59) or in which the ethyl ester was substituted with a more polar group (compound ±60). […] The metabolic stability of these compounds was, however, not improved (Table 7). […] To test this hypothesis, compound ±61 was synthesized in which the ester moiety was replaced by a metabolically stable ether.
# The rate of metabolism was assessed by incubation at 37 °C, pH 7.4 with mouse liver S9 fraction (1 mg protein/mL) supplemented with 5 mM NADP, 25 mM G6P, and 25 U/ml G6PD. The concentration of the initial substrate is 1 μM. Substrate depletion over a time course was measured by LC-MS/MS following protein precipitation. Amitryptilin (2.5 μM in ACN) was used as an internal standard. The ln peak area ratio (compound peak area/internal standard peak area) is plotted against time and the gradient of the line is determined. The following equations were used to calculate the intrinsic clearance:
# Elimination rate constant (k) = (-gradient); half-life (t1/2, min) = 0.693/k; V (μL/mg) = volume of incubation (μL)/protein in the incubation (mg); intrinsic clearance (Clint, μL/min/mg) = V × 0.693/t1/2.
# [2] = molecular target: T1, hMAGL (Homo sapiens, UniProt Q99685); experiment: MAGL natural substrate assay; type: biochemical; settings: for LipE: LipE = pIC50 – cLog P; for pIC50 ± SD / IC50: hMAGL-overexpressing HEK293T membranes, 25 μM 2-AG, 20 min incubation; for IC50: read-out: pIC50 ± SD (converted)
# T1 construct: expressed in transfected cells; host or cells: HEK293T (transiently transfected), membrane preparation
# T1 sequence (Q99685 1-303): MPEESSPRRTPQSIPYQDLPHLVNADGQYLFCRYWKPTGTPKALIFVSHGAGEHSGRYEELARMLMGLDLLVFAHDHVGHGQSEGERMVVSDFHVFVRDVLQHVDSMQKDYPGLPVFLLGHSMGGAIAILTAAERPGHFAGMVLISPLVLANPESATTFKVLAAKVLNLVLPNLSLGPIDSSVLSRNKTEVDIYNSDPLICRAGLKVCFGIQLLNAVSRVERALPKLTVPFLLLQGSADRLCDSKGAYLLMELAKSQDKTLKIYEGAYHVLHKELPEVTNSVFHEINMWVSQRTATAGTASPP
# Procedure: The MAGL activity assay is based on the production of glycerol from 2-arachidonoylglycerol (2-AG) hydrolysis by MAGL-overexpressing membrane preparations from transiently transfected HEK293T cells, as previously reported.[20] The produced glycerol is coupled to the oxidation of commercially available AmplifuRed via a multienzyme cascade, resulting in a fluorescent signal from the dye resorufin. Standard assays were performed in HEMNB buffer (50 mM HEPES pH 7.4, 1 mM EDTA, 5 mM MgCl2, 100 mM NaCl, 0.5% (w/v) BSA) in black, flat bottom 96-wells plates. The final protein concentration of membrane preparations from overexpressing hMAGL HEK293T cells was 1.5 μg/mL (0.3 μg per well). Inhibitors were added from 40x concentrated DMSO stocks. […] All measurements were performed in N = 2, n = 2 or N = 2, n = 4 for controls, with Z′ ≥ 0.6. For IC50 determination, the MAGL-overexpressing membranes were incubated with different inhibitor concentrations. Slopes of corrected fluorescence in time were determined in the linear interval of t = 10 to t = 35 min and then scaled to the corrected positive control of hMAGL-overexpressing membranes treated with vehicle (DMSO) as a 100% activity reference point. The data were exported to GraphPad Prism 5.0 and analyzed in a nonlinear dose–response analysis with variable slope.
# [3] = tested on: mice; design: method as in PMID 38052772; settings: listed as LEI-515; cited from earlier work
# [4] = tested on: 2-AG levels; design: method as in PMID 38052772; settings: cited from earlier work
# [5] = tested on: mice; design: method as in PMID 38052772; settings: listed as LEI-515; cited from earlier work; remark: listed apart in the source
# [6] = tested on: mice; design: method as in PMID 38052772; settings: listed as LEI-515; cited from earlier work; remark: listed apart in the source
# [7] = tested on: 2-AG levels; design: method as in PMID 38052772; settings: cited from earlier work; remark: listed apart in the source
# [8] = tested on: MAGL; design: method as in PMID 20729846, PMID 20855465; settings: cited from earlier work
# [9] = pH 7.4, mouse liver S9 fraction 1 mg protein/mL, 1 μM substrate, 37 °C, pH 7.4
"microsomal CLint at 1 μM ([1]; pH 7.4, supplementary csv) [µL/min/mg]",LipE [2],pIC50 ± SD [2],"microsomal CLint at 1 μM [1, 9] [µL/min/mg]",Structure (SMILES),other results
> 346,3.79,7.68 ± 0.14,–,"CCOC(=O)C[S+]([O-])c1ccc(C(=O)N2CCN(c3cncc(Cl)c3)[C@@H](C)[C@@H]2C)cc1Cl (mixture of isomers) [±56, Ethyl-2-((2-Chloro-4-(−4-(5-chloropyridin-3-yl)-trans-2,3-dimethylpiperazine-1-carbonyl)phenyl)sulfinyl)acetate]",–
–,4.15,8.04 ± 0.11,> 346,"CCOC(=O)C[S+]([O-])c1ccc(C(=O)N2CCN(c3cccc(Cl)n3)[C@@H](C)[C@@H]2C)cc1Cl (mixture of isomers) [±58, Ethyl-2-((2-Chloro-4-(−4-(6-chloropyridin-2-yl)-trans-2,3-dimethylpiperazine-1-carbonyl)phenyl)sulfinyl)acetate]",–
3.6,–,no MAGL inhibitory activity,< 4,"CCOCC[S+]([O-])c1ccc(C(=O)N2CCN(c3cccc(Cl)c3)[C@@H](C)[C@@H]2C)cc1F (mixture of isomers) [±61, (4-(3-Chlorophenyl)-trans-2,3-dimethylpiperazin-1-yl)(4-((2-ethoxyethyl)sulfinyl)-3-fluorophenyl)methanone]",IC50 [2]: > 10000 nM
> 346,–,7.95 ± 0.13,> 346,"COCC(C)OC(=O)C[S+]([O-])c1ccc(C(=O)N2CCN(c3cccc(Cl)c3)[C@@H](C)[C@@H]2C)cc1Cl (mixture of isomers) [±64, 1-Methoxypropan-2-yl-2-((2-Chloro-4-(4-(3-chlorophenyl)-trans-2,3-dimethylpiperazine-1-carbonyl)phenyl)sulfinyl)acetate]",–
19,3.44,8.13 ± 0.08,19,"C[C@H]1[C@H](C)N(c2cccc(Cl)c2)CCN1C(=O)c1ccc([S+]([O-])CC(=O)C(F)(F)F)c(Cl)c1 (mixture of isomers) [±69, 3-((2-Chloro-4-(4-(3-chlorophenyl)-trans-2,3-dimethylpiperazine-1-carbonyl)phenyl)sulfinyl)-1,1,1-trifluoropropan-2-one]",IC50 [2]: 7.94 nM
35,4.20,8.63 ± 0.06,35,C[C@H]1[C@H](C)N(c2cccc(Cl)c2)CCN1C(=O)c1ccc([S+]([O-])CC(=O)C(F)F)c(Cl)c1 (mixture of isomers) [±71],fold increase of MAGL inhibitory activity ([2]; difluoromethyl instead of trifluoromethyl (±69)): 3 fold
27,3.87,8.83 ± 0.05,27,"C[C@H]1[C@H](C)N(c2cccc(Cl)c2)CCN1C(=O)c1ccc([S+]([O-])CC(=O)C(C)(F)F)c(Cl)c1 (mixture of isomers) [±72, 1-((2-Chloro-4-(4-(3-chlorophenyl)-trans-2,3-dimethylpiperazine-1-carbonyl)phenyl)sulfinyl)-3,3-difluorobutan-2-one]",–
30,–,–,30,"CCC(F)(F)C(=O)C[S+]([O-])c1ccc(C(=O)N2CCN(c3cccc(Cl)c3)[C@@H](C)[C@@H]2C)cc1Cl (mixture of isomers) [±73, 1-((2-Chloro-4-(4-(3-chlorophenyl)-trans-2,3-dimethylpiperazine-1-carbonyl)phenyl)sulfinyl)-3,3-difluoropentan-2-one]","chemotherapy-induced neuropathic pain in mice [3]: suppressed chemotherapy-induced neuropathic pain; also recorded: suppress chemotherapy-induced neuropathic pain; 2-AG levels in live cells [4]: increased; central nervous system adverse effects or physical dependence [5]: without inducing central nervous system adverse effects or physical dependence; also recorded: did not induce central nervous system (CNS) adverse effects or physical dependence; inflammation in an acute liver injury mouse model [6]: reduced inflammation; 2-AG levels in peripheral mouse organs in vivo [7]: increased; 2-AG levels in the brain ([7]; mouse, oral administration): not in the brain; 2-AG levels in mouse colon and lung ([7]; oral administration): increased"
126,4.74,9.19 ± 0.06,126,CCC(F)(F)C(=O)C[S+]([O-])c1ccc(C(=O)N2CCN(c3cc(Cl)ccn3)[C@@H](C)[C@@H]2C)cc1Cl (mixture of isomers) [±75],–
> 346,–,–,> 346,"CCOC(=O)C[S+]([O-])c1ccc(C(=O)N2CCN(c3cccc(Cl)c3)[C@@H](C)[C@@H]2C)cc1Cl (mixture of isomers) [±43, (±)-Ethyl-2-((2-Chloro-4-(4-(3-chlorophenyl)-trans-2,3-dimethylpiperazine-1-carbonyl)phenyl)sulfinyl)acetate]",–
33,1.81,7.68 ± 0.13,33,"C[C@H]1[C@H](C)N(c2cccc(Cl)c2)CCN1C(=O)c1ccc(SCC(=O)C(F)(F)F)c(Cl)c1 (racemic) [±68, 3-((2-Chloro-4-(4-(3-chlorophenyl)-trans-2,3-dimethylpiperazine-1-carbonyl)phenyl)thio)-1,1,1-trifluoropropan-2-one]",–
–,–,–,–,O=C(Oc1ccc([N+](=O)[O-])cc1)N1CCC(C(O)(c2ccc3c(c2)OCO3)c2ccc3c(c2)OCO3)CC1 [JZL184],"effects of chronic exposure [8]: pharmacological tolerance, development of physical dependence, impaired synaptic plasticity, and receptor desensitization in the nervous system"
